For assay [1], the target named is T1, human topoisomerase II α-DNA covalent complexes (Homo sapiens, UniProt P11388).
T1 construct: made in house; host or cells: yeast (over-expressing yeast cells)
The experiment in a line: Topoisomerase II DNA cleavage assay (phenol-chloroform extraction, Δcpm). It counts as biochemical. Particulars: 1000 μM.
Description: In order to determine the ability of NSC 35866 to increase the level of topoisomerase II-DNA covalent complexes on DNA in vitro, a new and highly sensitive topoisomerase II DNA cleavage assay having a numeric readout was developed. […] The DNA substrate is a 950 bp linear ^3H-labelled DNA synthesized by PCR in the presence of ^3H-dATP. […] The DNA fragment was isolated from unincorporated dNTPs by ethanol precipitation at 0.3 M NaCl, followed by washing in 70% ethanol. The specific activity of the fragment was typically 10,000-20,000 cpm/μg. Before starting the assay, a drug dilution series comprising 10× the final drug concentration was made. Reaction mixtures containing 100 ng of the 950 bp linear ^3H-labelled DNA, 300 ng human topoisomerase II q, topoisomerase II cleavage buffer (10 mM TRIS-HCL pH 7.9, 50 mM NaCl, 50 mM KCl, 5 mM MgCl2, 1 mM EDTA, 15 μg/mL BSA and 1 mM Na2ATP), and increasing concentrations of drug in 50 μL reaction volumes were then incubated 10 minutes at 37° C. A “no topoisomerase II” sample and a “no drug” sample were always included as controls. Next, the cleavable complex was trapped by adding 5 μL 10% SDS. After vigorous vortexing, 45 uL TE buffer, pH=8.0, was added to obtain 100 μL per sample. 100 μL phenol:chloroform:isoamyl alcohol (25:24:1) equilibrated with TE buffer, pH=8.0, was then added, and the samples were vortexed vigorously for 30 seconds. Finally, the samples were centrifuged at 20,000 g for 2 minutes and 90 μL of the upper water phase was used for scintillation counting using 15 mL of Ultima gold scintillation fluid (Packard).
In order to establish whether NSC 35866 inhibits the DNA strand passage reaction of topoisomerase II by stabilising a covalent reaction intermediate, a new and highly sensitive topoisomerase II DNA cleavage assay having a numeric read-out was developed. This assay is based on the fact that after extraction with phenol-chloroform, protein-bound DNA is removed from the water phase, while naked DNA remains in the water phase. […] Consequently, in reactions containing topoisomerase II and linear DNA, the ability of compounds to remove DNA from the water phase after phenol-chloroform extraction should reflect their potency as topoisomerase II poisons. This assay was first validated by incubating 100 ng of a linear 950 bp PCR DNA fragment with 300 ng of purified human topoisomerase II α in the presence of increasing concentrations of the etoposide and m-AMSA. The DNA fragment was ^3H labelled by performing PCR in the presence of ^3H-dATP. In these experiments, a “no topoisomerase II” sample was always included to determine the level of radioactivity (DNA) retained in the water-phase when no enzyme is present. Within each experiment, the CPM values retained in the water phase in the topoisomerase II reactions were then subtracted from this background CPM value to give Δcpm. Consequently, the Δcpm values of samples with no drug added represent the background level of topoisomerase II-DNA covalent complexes present in the reaction mixture under the assay conditions, while the Δcpm levels in the presence of drugs represent the levels of poison-induced topoisomerase II-DNA covalent complexes.

For assay [2], the target named is T2, topoisomerase II α (Homo sapiens, UniProt P11388). The experiment in a line: Topoisomerase II retention on DNA/streptavidin beads (salt-stable complex). The arrangement: made in house; host or cells: yeast (over-expressing yeast cells). The assay is classed as biochemical. On the procedure:
An assay capable of measuring non-covalent complexes of topoisomerase II on closed circular DNA was performed as described in Morris et al., 2000, with modifications. When performing six reactions, 60 μL M280 streptavidin coated bead (Dynal A/S, Oslo, Norway) slurry corresponding to 600 μg beads was transferred to a 1.5 mL tube that was then placed in a Dynal MPC-E (magnetic particle concentrator) rack (Dynal A/S, Oslo, Norway) for 1 to 2 minutes until the beads had settled on the tube wall. The beads were then washed twice in the DNA binding solution supplied with the kilobase binding kit (Dynal A/S, Oslo, Norway) by repeating this step. Finally, the beads were re-suspended in 250 μL DNA binding solution. A preparation of biotin labelled plasmid DNA containing a 5-kb super coiled circular DNA molecule carrying 8 successive PNA (Peptide Nucleic Acid) linked biotin labels at one known position (pGeneGrip biotin blank vector, Gene Therapy Systems Inc., San Diego, Calif., USA) was made by mixing 220 μL distilled water and 30 μL biotinylated DNA. After mixing the beads and the DNA preparation, the sample was left overnight at room temperature under gentle agitation to assure optimal formation of the DynaBeads DNA complex. Next, the complex was washed twice in 480 μL wash buffer (10 mM TRIS-HCL, pH 7.5, 2 M NaCl, 1 mM EDTA), once in distilled water, and once in topoisomerase reaction buffer (10 mM TRIS-HCl, pH 7.9, 50 mM NaCl, 50 mM KCl, 5 mM MgCl2, 1 mM EDTA, […] BSA). Then, the beads were re-suspended in 600 μL topoisomerase II buffer and divided into 6 tubes. 100 μL reactions containing plasmid DNA coated DynaBeads, topoisomerase II buffer, 2 μg purified human topoisomerase […] and drugs were incubated for 30 minutes at 37° C. When included, ATP was present at 1 mM. […]
FIG. 7 describes the results of studies of the ability of NSC 35866 to stabilise a salt-stable complex of human topoisomerase II α on covalently closed circular DNA. Retention of salt-stable (to 2 M KCl) complexes of human topoisomerase II α on circular DNA attached to magnetic beads via biotin-streptavidin linkage was determined by eluting retained protein by adding running buffer containing 4% SDS followed by heating to 100° C. for 10 minutes. The amount of human topoisomerase II α protein retained was then determined by running the samples on 7% SDS-PAGE gels followed by straining with GelCode Blue Strain Reagent (Pierce, Rockford, Ill., USA): Lane 1, no drug; Lane 2, 200 μM ICRF-187; Lane 3, 30 μM NSC 35866; Lane 4, 100 μM NSC 35866; Lane 5, 300 μM NSC 35866; Lane 6, 1000 μM NSC 35866; Lane K, 2 μg human topoisomerase II α. […]

Assay [3] addresses T2, topoisomerase II α. The experiment in a line: Band depletion assay (extractable topoisomerase II α, western blot). The assay is classed as cell-based. Particulars: OC—NYH cells, one hour. The arrangement: OC—NYH cells were exposed to increasing concentrations of NSC 35866 for one hour and total proteins were extracted at 0.3 M NaCl; endogenous in cells; host or cells: human small cell lung cancer OC-NYH cells. As for the experimental part:
Band depletion assay was performed essentially as described in Sehested et al., 1998. The amount of extractable topoisomerase II α was detected by the ECL detection method (Amersham, Buckinghamshire, United Kingdom). OC—NYH cells were exposed to increasing concentrations of NSC 35866 for one hour and total proteins were extracted at 0.3 M NaCl. For detection of topoisomerase II α, a polyclonal primary antibody (Bio Trend, Cologne, Germany) was used. Horseradish peroxidase linked anti-rabbit antibody (Amersham, Buckinghamshire, United Kingdom) was used as secondary antibody.
FIG. 10 describes the results of studies of the ability of NSC 35866 to trap human topoisomerase II α as a non-extractable complex on DNA in a dose dependent manner. The ability of NSC 35866 to stabilise topoisomerase II α as a non-extractable complex on DNA in human SCLC OC—NYH cells was assessed using the band depletion assay as described herein. The amounts of topoisomerase II α was visualised by western blotting using a topoisomerase II α specific primary antibody: Lane 1, no drug; Lane 2, 200 μM ICRF-187; Lane 3, 200 μM NSC 35866; Lane 4, 500 μM NSC 35866; Lane 5, 1000 μM NSC 35866. Band depletion of the topoisomerase II α isoform caused by NSC 35866 was detected in two independent experiments.

From US20090209535A1, “6-ETHER/THIOETHER-PURINES AS TOPOISOMERASE II CATALYTIC INHIBITORS AND THEIR USE IN THERAPY” (TOPOTARGET A/S, priority 2005, published 2009) come the findings set out here.

T2 sequence (P11388 whole entry): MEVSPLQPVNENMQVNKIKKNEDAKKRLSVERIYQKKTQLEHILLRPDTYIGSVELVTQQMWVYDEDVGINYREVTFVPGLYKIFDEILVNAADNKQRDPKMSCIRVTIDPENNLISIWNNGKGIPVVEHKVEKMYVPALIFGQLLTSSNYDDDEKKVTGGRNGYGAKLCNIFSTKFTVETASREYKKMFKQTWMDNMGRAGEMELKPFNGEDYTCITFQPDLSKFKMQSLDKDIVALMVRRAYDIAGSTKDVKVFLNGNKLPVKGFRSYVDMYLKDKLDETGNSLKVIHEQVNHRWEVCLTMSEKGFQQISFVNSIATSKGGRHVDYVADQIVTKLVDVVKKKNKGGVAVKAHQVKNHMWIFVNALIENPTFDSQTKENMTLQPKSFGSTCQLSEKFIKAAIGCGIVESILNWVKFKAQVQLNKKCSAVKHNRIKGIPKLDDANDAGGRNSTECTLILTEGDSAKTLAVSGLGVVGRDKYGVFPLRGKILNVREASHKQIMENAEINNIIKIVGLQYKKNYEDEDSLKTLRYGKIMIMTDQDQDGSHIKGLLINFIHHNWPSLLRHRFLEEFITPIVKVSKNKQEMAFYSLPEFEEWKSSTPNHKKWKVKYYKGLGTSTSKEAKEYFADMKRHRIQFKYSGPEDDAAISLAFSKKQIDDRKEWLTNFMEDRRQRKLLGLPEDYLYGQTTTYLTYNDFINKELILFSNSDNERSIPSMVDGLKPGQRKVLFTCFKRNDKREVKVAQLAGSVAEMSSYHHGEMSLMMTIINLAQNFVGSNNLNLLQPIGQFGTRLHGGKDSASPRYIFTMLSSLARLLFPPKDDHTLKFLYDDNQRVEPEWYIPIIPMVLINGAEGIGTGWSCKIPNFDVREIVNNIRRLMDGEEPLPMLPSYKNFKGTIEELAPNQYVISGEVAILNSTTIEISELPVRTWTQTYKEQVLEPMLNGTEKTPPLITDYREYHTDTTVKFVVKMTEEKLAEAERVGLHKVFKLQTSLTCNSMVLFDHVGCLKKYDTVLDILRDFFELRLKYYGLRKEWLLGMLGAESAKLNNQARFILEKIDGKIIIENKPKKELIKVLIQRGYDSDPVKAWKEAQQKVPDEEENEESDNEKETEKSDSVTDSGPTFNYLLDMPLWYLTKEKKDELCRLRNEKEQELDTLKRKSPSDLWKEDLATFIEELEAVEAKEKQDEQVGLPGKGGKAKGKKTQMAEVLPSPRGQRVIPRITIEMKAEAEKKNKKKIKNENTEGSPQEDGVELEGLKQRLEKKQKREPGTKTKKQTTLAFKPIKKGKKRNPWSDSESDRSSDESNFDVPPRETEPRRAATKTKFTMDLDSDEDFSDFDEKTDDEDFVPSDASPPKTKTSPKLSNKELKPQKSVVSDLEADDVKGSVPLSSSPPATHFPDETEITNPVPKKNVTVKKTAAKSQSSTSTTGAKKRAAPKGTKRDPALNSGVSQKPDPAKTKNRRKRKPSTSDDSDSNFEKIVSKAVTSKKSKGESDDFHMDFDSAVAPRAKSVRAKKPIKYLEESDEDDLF
T1 sequence (P11388 whole entry, one chain of several): as the sequence (P11388 whole entry) above

For the compound `Nc1nc(SCCc2ccccc2)c2nc[nH]c2n1` [NSC 35866, 2-amino-6-(phenylethylthio)-purine], in assay [1], the “effect on level of topoisomerase II-DNA covalent complexes, in words” value is “no measurable effect”. On topoisomerase II α [2] (30, 100, 300 and 1000 μM, with ATP), the “retention of topoisomerase II on DNA beads after 2 M KCl wash, in words” value is recorded as “traps human topoisomerase II α as a salt-stable complex on circular closed DNA in a dose-dependent manner”. Also, the “retention of topoisomerase II on DNA beads, in words” value on topoisomerase II α [2] (in the absence of ATP) was “only at 300 and 1000 μM”. In addition, the “effect on amount of extractable topoisomerase II α, in words” value on topoisomerase II α [3] (200 μM) was “no effect”; on topoisomerase II α [3] (500 μM), “reduced the amount of extractable topoisomerase II”; at topoisomerase II α [3] (1000 μM), “reduced the amount of extractable topoisomerase II”.
